Results from patent US20140065070A1, “METHODS OF PREPARING TRIAZOLE-CONTAINING RADIOIODINATED COMPOUNDS” (MCMASTER UNIVERSITY, priority 2012, published 2014).

Tests used:
[1] = Log D pH 7.4 measurement (n-octanol/PBS); type: physicochemical; settings: n-octanol/PBS pH 7.4
Experimental: The samples were vortexed for 20 min and centrifuged at 6000 rpm for 5 min. Aliquots (0.1 mL) were subsequently removed from both the aqueous and the organic n-octanol layers and counted separately in a γ counter (Wallac Wizard 1470 automatic γ counter). Measurements represent three separate experiments with four extractions in each set for a total of twelve data points. The partition coefficients were then calculated using the equation D=(activity concentration in n-octanol)/(activity concentration in aqueous layer).

[2] = Biodistribution study of 123I-TAAG in normal Balb/c mice; type: in vivo; settings: tail vein injection
From the text: Animals were anesthetized with 3% isoflurane and euthanized by cervical dislocation. Blood, heart, lungs, liver, spleen, kidneys, adrenals, stomach (with contents), large intestine and caecum (with contents) and small intestines (with contents), bladder and urine, thyroid/trachea, bone, skeletal muscle and tail were collected, weighed and counted in a Perkin Elmer Wizard 1470 Automatic Gamma Counter. Decay correction was used to normalize organ activity measurements to time of dose preparation for data calculations with respect to injected dose (i.e. % ID/g).

[3] = Stability of I-TAAG construct in solution; type: physicochemical; settings: 48 hours
Experimental: Reactions were complete within 10 min and the product was isolated by solid-phase extraction or semi-preparative HPLC.

LNCaP xenografts = assay: Biodistribution study of 123I-TAAG-PSMA in NCr nude mice bearing LNCaP xenografts; type: in vivo, NCr nude mice
Experimental: LNCaP cells derived from lymph node metastases of human prostate carcinoma were purchased from ATCC. Cells were propagated using RPMI 1640 media supplemented with 10% Fetal Bovine Serum, 4 mM L-glutamine, 1 mM Sodium Pyruvate, 10 mM Hepes, 1% Penicillin Streptomycin (Invitrogen, Mississauga ON) and 0.25% D-glucose (Sigma, Oakville ON) and grown at 37° C. and 5% CO2. NCr nude homo male mice ordered from Taconic (Germantown, N.Y., USA) were injected with 2.0×10^6 LNCaP cells in 100 μL Matrigel/DPBS (1:1) subcutaneously into the right flank at 7 to 8 weeks of age. […] Animals were anesthetized with 3% isoflurane and euthanized by cervical dislocation. Blood, bone, liver, gall bladder, spleen, small intestine (with contents), large intestine and caecum (with contents), bladder, urine, skeletal muscle, brain, LNCaP tumour, heart, lung, salivary glands, kidneys, stomach (with contents), prostate, thyroid/trachea, adrenals, esophagus, tail, adipose and testes were collected, weighed and counted in a Perkin Elmer Wizard 1470 Automatic Gamma Counter. Decay correction was used to normalize organ activity measurements to time of dose preparation for data calculations with respect to injected dose (i.e. % ID/g).

LNCaP tumours = assay: SPECT-CT imaging study of 123I-TAAG-PSMA; type: in vivo, NCr mice
Experimental: Prior to imaging, mice were anaesthetized with 2.5% isoflurane and maintained under same conditions for the length of the SPECT and CT scans. Imaging was conducted on the first mouse at 2 and 6 hours post injection and on the second mouse at 4 and 23 hours post injection. At each time point, multiple SPECT acquisitions were completed for 32 frames at 10 sec/frame for the 2 hour time point, 20 sec/frame for the 4 and 6 hour time point or 30 sec/frame for the 23 hour time point on a GammaMedica Ideas X-SPECT system (North Ridge, Calif.). CT acquisitions consisted of 512 projections acquired over 360° with 75 Kvp, 205 mA cone beam CT system. Cobra Exxim software (Feldkamp filtered backprojection cone beam reconstruction software) was used to reconstruct the images at a voxel size of 155 microns and a matrix size of 512^3. An OS-EM interactive reconstructed method (2 iterations/8 subsets) was used to reconstruct the SPECT data which was fused to the CT data using in-house software. AMIDE software was used to analyze the images.

[4] = at pH 7.4; comparison value; cited from earlier work
[5] = 1 hr + block (PMPA 10 mg/kg), NCr nude mice bearing LNCaP xenografts, mean ± SEM
[6] = male, NCr nude, mouse, in vivo, 1 h
[7] = male, NCr nude, mouse, in vivo, 23 h
[8] = male, NCr nude, mouse, in vivo, 24 h

For `O=C(O)Cn1cc(I)nn1` [^123I-TAAG, 2-(4-iodo-1H-1,2,3-triazol-1-yl)acetic acid], the logD [1] was -2.58 ± 0.01, the “clearance from organs (biodistribution)” value [2] was “clears all major organs quickly and collects in the bladder within 30 minutes” and the stability in solution [3] was “stable over 48 hours in solution with no signs of deiodination”.
For `O=C(O)CC[C@H](NC(=O)N[C@@H](CCCCNC(=O)Cn1cc(I)nn1)C(=O)O)C(=O)O` [^123I-TAAG-PSMA, (S)-2-(3-((S)-1-carboxy-5-(2-(4-iodo-1H-1,2,3-triazol-1-yl)acetamido)pentyl)ureido)pentanedioic acid], the “Tissue distribution, Adipose” value (LNCaP xenografts; [5]) was 0.35 ± 0.21 % ID/g, the “Tissue distribution, Adrenals” value (LNCaP xenografts; [5]) was 3.34 ± 1.49 % ID/g and the “Tissue distribution, Bladder” value (LNCaP xenografts; [5]) was 10.78 ± 4.16 % ID/g. The “Tissue distribution, Blood” value (LNCaP xenografts; [5]) was 0.32 ± 0.06 % ID/g, the “Tissue distribution, Bone” value (LNCaP xenografts; [5]) was 0.26 ± 0.02 % ID/g and the “Tissue distribution, Brain” value (LNCaP xenografts; [5]) was 0.05 ± 0.02 % ID/g. For the same compound, the “Tissue distribution, Esophagus” value (LNCaP xenografts; [5]) was 0.32 ± 0.04 % ID/g, the “Tissue distribution, Gall Bladder” value (LNCaP xenografts; [5]) was 1.32 ± 0.53 % ID/g and the “Tissue distribution, Heart” value (LNCaP xenografts; [5]) was 0.15 ± 0.04 % ID/g. For the same compound, the “Tissue distribution, Kidneys” value (LNCaP xenografts; [5]) was 9.57 ± 5.17 % ID/g, the “Tissue distribution, Large Intestine + Caecum” value (LNCaP xenografts; [5]) was 0.12 ± 0.03 % ID/g and the “Tissue distribution, Liver” value (LNCaP xenografts; [5]) was 2.25 ± 0.29 % ID/g. The “Tissue distribution, Lung” value (LNCaP xenografts; [5]) was 0.36 ± 0.08 % ID/g, the “Tissue distribution, Prostate” value (LNCaP xenografts; [5]) was 3.85 ± 2.91 % ID/g and the “Tissue distribution, Salivary Glands” value (LNCaP xenografts; [5]) was 0.52 ± 0.12 % ID/g. The “Tissue distribution, Skeletal Muscle” value (LNCaP xenografts; [5]) was 0.19 ± 0.03 % ID/g, the “Tissue distribution, Small Intestine” value (LNCaP xenografts; [5]) was 0.30 ± 0.09 % ID/g and the “Tissue distribution, Spleen” value (LNCaP xenografts; [5]) was 0.13 ± 0.03 % ID/g. The “Tissue distribution, Stomach” value (LNCaP xenografts; [5]) was 0.49 ± 0.07 % ID/g, the “Tissue distribution, Testes” value (LNCaP xenografts; [5]) was 1.16 ± 1.05 % ID/g and the “Tissue distribution, Thyroid/Trachea” value (LNCaP xenografts; [5]) was 0.62 ± 0.24 % ID/g. The “Tissue distribution, Urine” value (LNCaP xenografts; [5]) was 486.70 ± 163.60 % ID/g, the “Tissue distribution, Adipose” value (LNCaP xenografts; [6]) was 1.73 ± 0.26 % ID/g and the “Tissue distribution, Adrenals” value (LNCaP xenografts; [6]) was 8.45 ± 2.13 % ID/g. The “Tissue distribution, Bladder” value (LNCaP xenografts; [6]) was 1.78 ± 0.23 % ID/g, the “Tissue distribution, Blood” value (LNCaP xenografts; [6]) was 0.81 ± 0.07 % ID/g and the “Tissue distribution, Bone” value (LNCaP xenografts; [6]) was 0.41 ± 0.07 % ID/g. For the same compound, the “Tissue distribution, Brain” value (LNCaP xenografts; [6]) was 0.06 ± 0.01 % ID/g, the “Tissue distribution, Esophagus” value (LNCaP xenografts; [6]) was 1.3 ± 0.26 % ID/g and the “Tissue distribution, Gall Bladder” value (LNCaP xenografts; [6]) was 1.28 ± 0.26 % ID/g. For the same compound, the “Tissue distribution, Heart” value (LNCaP xenografts; [6]) was 0.85 ± 0.29 % ID/g, the “Tissue distribution, Kidneys” value (LNCaP xenografts; [6]) was 137.54 ± 11.43 % ID/g and the “Tissue distribution, Large Intestine + Caecum” value (LNCaP xenografts; [6]) was 0.27 ± 0.06 % ID/g. The “Tissue distribution, Liver” value (LNCaP xenografts; [6]) was 2.32 ± 0.28 % ID/g, the “Tissue distribution, Lung” value (LNCaP xenografts; [6]) was 2.58 ± 0.46 % ID/g and the “Tissue distribution, Prostate” value (LNCaP xenografts; [6]) was 1.89 ± 0.62 % ID/g. The “Tissue distribution, Salivary Glands” value (LNCaP xenografts; [6]) was 2.97 ± 0.95 % ID/g, the “Tissue distribution, Skeletal Muscle” value (LNCaP xenografts; [6]) was 0.33 ± 0.04 % ID/g and the “Tissue distribution, Small Intestine” value (LNCaP xenografts; [6]) was 0.64 ± 0.13 % ID/g. For the same compound, the “Tissue distribution, Spleen” value (LNCaP xenografts; [6]) was 4.98 ± 1.31 % ID/g, the “Tissue distribution, Stomach” value (LNCaP xenografts; [6]) was 0.90 ± 0.07 % ID/g and the “Tissue distribution, Testes” value (LNCaP xenografts; [6]) was 0.69 ± 0.10 % ID/g. For the same compound, the “Tissue distribution, Thyroid/Trachea” value (LNCaP xenografts; [6]) was 1.46 ± 0.3 % ID/g, the “Tissue distribution, Urine” value (LNCaP xenografts; [6]) was 43.99 ± 5.54 % ID/g and the “Tumor to tissue ratio, Tumour/blood” value (LNCaP xenografts; [6]) was 28.22 ± 7.12. For the same compound, the “Tumor to tissue ratio, Tumour/skeletal muscle” value (LNCaP xenografts; [6]) was 78.06 ± 30.62, the “activity retained in the tumour” value (LNCaP xenografts; [7]) was 15 % ID/g and the “remaining activity in the thyroid” value (LNCaP xenografts; [7]) was “about 10 % ID/g”. For the same compound, the “Tissue distribution, Adipose” value (LNCaP xenografts; [8]) was 0.02 ± 0.01 % ID/g, the “Tissue distribution, Adrenals” value (LNCaP xenografts; [8]) was 0.33 ± 0.07 % ID/g and the “Tissue distribution, Bladder” value (LNCaP xenografts; [8]) was 0.08 ± 0.02 % ID/g. For the same compound, the “Tissue distribution, Blood” value (LNCaP xenografts; [8]) was 0.01 ± 0.00 % ID/g, the “Tissue distribution, Bone” value (LNCaP xenografts; [8]) was 0.04 ± 0.01 % ID/g and the “Tissue distribution, Brain” value (LNCaP xenografts; [8]) was 0.03 ± 0.00 % ID/g. For the same compound, the “Tissue distribution, Esophagus” value (LNCaP xenografts; [8]) was 0.07 ± 0.01 % ID/g, the “Tissue distribution, Gall Bladder” value (LNCaP xenografts; [8]) was 0.19 ± 0.08 % ID/g and the “Tissue distribution, Heart” value (LNCaP xenografts; [8]) was 0.01 ± 0.00 % ID/g. For the same compound, the “Tissue distribution, Kidneys” value (LNCaP xenografts; [8]) was 0.99 ± 0.27 % ID/g, the “Tissue distribution, LNCap Tumour” value (LNCaP xenografts; [8]) was 15.31 ± 4.23 % ID/g and the “Tissue distribution, Large Intestine + Caecum” value (LNCaP xenografts; [8]) was 0.04 ± 0.01 % ID/g. For the same compound, the “Tissue distribution, Liver” value (LNCaP xenografts; [8]) was 0.03 ± 0.01 % ID/g, the “Tissue distribution, Lung” value (LNCaP xenografts; [8]) was 0.01 ± 0.00 % ID/g and the “Tissue distribution, Prostate” value (LNCaP xenografts; [8]) was 0.09 ± 0.03 % ID/g. The “Tissue distribution, Salivary Glands” value (LNCaP xenografts; [8]) was 0.05 ± 0.01 % ID/g, the “Tissue distribution, Skeletal Muscle” value (LNCaP xenografts; [8]) was 0.01 ± 0.00 % ID/g and the “Tissue distribution, Small Intestine” value (LNCaP xenografts; [8]) was 0.02 ± 0.01 % ID/g. For the same compound, the “Tissue distribution, Spleen” value (LNCaP xenografts; [8]) was 0.03 ± 0.00 % ID/g, the “Tissue distribution, Stomach” value (LNCaP xenografts; [8]) was 0.07 ± 0.03 % ID/g and the “Tissue distribution, Testes” value (LNCaP xenografts; [8]) was 0.01 ± 0.00 % ID/g. The “Tissue distribution, Thyroid/Trachea” value (LNCaP xenografts; [8]) was 9.36 ± 1.05 % ID/g, the “Tissue distribution, Urine” value (LNCaP xenografts; [8]) was 1.04 ± 0.39 % ID/g and the “Tumor to tissue ratio, Tumour/blood” value (LNCaP xenografts; [8]) was 1867 ± 499.72. For the same compound, the “Tumor to tissue ratio, Tumour/skeletal muscle” value (LNCaP xenografts; [8]) was 1531 ± 422.74, the SPECT-CT image uptake (LNCaP tumours; 23-24 hours post injection) was “the activity was found only in the tumour and in the thyroid” and the SPECT-CT image uptake (LNCaP tumours; two hours post injection) was “uptake of the agent in the kidneys, bladder and a small amount in the tumour”. The logD [1] was -3.23 ± 0.05.
For `O=C(O)c1ccc(I)cc1` [p-iodobenzoic acid], the “log D” value [4] is listed as 0.07.
